Among the data in ChEMBL document CHEMBL3621039, “Synthesis of alkylsulfonyl and substituted benzenesulfonyl curcumin mimics as dual antagonist of L-type Ca(2+) channel and endothelin A/B2 receptor” (Bioorg Med Chem, 2015) are Activity and EC50 values, retold here.

The species entered for assay [1] is Oryctolagus cuniculus. As to the kind of experiment: Antagonist activity against L-type calcium channel in New Zealand white rabbit basilar artery assessed as vasodilation by measuring effect on 50 mM K+-stimulated depolarization-induced constriction at 10 uM. Type of assay: tissue-based. Further details: scale not given: the % may be the effect or the level left.

The species entered for assay [2] is Oryctolagus cuniculus. As to the kind of experiment: Antagonist activity against endothelin A/B2 receptor in New Zealand white rabbit basilar artery assessed as vasodilation by measuring effect on endothelin-1-induced constriction at 10 uM. Format: tissue-based. Set-up: scale not given: the % may be the effect or the level left.
The nature of assay [3]: Antagonist activity against endothelin A/B2 receptor in New Zealand white rabbit basilar artery assessed as vasodilation by measuring effect on endothelin-1-induced constriction. Type of assay: tissue-based, Oryctolagus cuniculus.
Assay [4] in a line: Antagonist activity against L-type calcium channel in New Zealand white rabbit basilar artery assessed as vasodilation by measuring effect on 50 mM K+-stimulated depolarization-induced constriction. Type of assay: tissue-based, Oryctolagus cuniculus.

The structures appear in SMILES notation.

`COc1cc(/C=C/C(=O)c2cccc(NS(=O)(=O)c3ccc(OC(F)(F)F)cc3)c2)ccc1O`: the Activity in assay [1] was determined as 76.7%; in assay [2], 81.4%. Also, in assay [3], the EC50 (in general, the concentration needed to bring the measured effect to its halfway point) amounted to 6.1 µM.
`COc1cc(/C=C/C(=O)c2cccc(NS(=O)(=O)c3c(Cl)cccc3Cl)c2)ccc1O`: the values for the Activity in assay [1] and in assay [2] were 99.4% and 99.8%, respectively. The EC50 stood at 2.78 µM in assay [4] and 1.8 µM in assay [3].
For `COc1cc(/C=C/C(=O)c2cccc(NS(=O)(=O)c3ccc(Cl)cc3)c2)ccc1O` the same measures were 93.4%, 78.3%, 5.58 µM and 5.9 µM.
For the compound `CCS(=O)(=O)Nc1cccc(C(=O)/C=C/c2ccc(O)c(OC)c2)c1`, the results for the Activity in assay [1] and in assay [2] were 55.3% and 19.7%, respectively.
For `COc1cc(/C=C/C(=O)c2cccc(NS(=O)(=O)c3cc(Cl)cc(Cl)c3)c2)ccc1O` the same measures were 37.3% and 55.9%.
`COc1cc(/C=C/C(=O)c2cccc(NS(=O)(=O)c3ccc(F)cc3)c2)ccc1O`: the Activity in assay [1] amounted to 71.8%; in assay [2], 75.1%. Besides, the EC50 in assay [3] amounted to 6.4 µM.
As for `COc1cc(/C=C/C(=O)c2cccc(NS(=O)(=O)c3ccccc3)c2)ccc1O`, the Activity in assay [1] came out at 50.4%; in assay [2], 40.2%.
For `COc1cc(/C=C/C(=O)c2cccc(NS(=O)(=O)c3ccc(Cl)c(Cl)c3)c2)ccc1O` the same measures were 30.2% and 41.8%.
Turning to `COc1cc(/C=C/C(=O)CC(=O)/C=C/c2ccc(O)c(OC)c2)ccc1O` [CURCUMIN], the Activity was 58.4% in assay [1] and 8.5% in assay [2]. Further, the EC50 turned out to be 7.48 µM in assay [4] and 48.5 µM in assay [3].
Regarding `COc1cc(/C=C/C(=O)c2cccc(NS(C)(=O)=O)c2)ccc1O`, the Activity came out at 4.2% in assay [1] and 22.3% in assay [2].
For `COc1cc(/C=C/C(=O)c2cccc(NS(=O)(=O)c3ccc(C(F)(F)F)cc3)c2)ccc1O` the same measures were 65.8% and 46.1%.
For `COc1ccc(S(=O)(=O)Nc2cccc(C(=O)/C=C/c3ccc(O)c(OC)c3)c2)cc1` the same measures were 26.4% and 56.8%.
With `COc1cc(/C=C/C(=O)c2cccc(NS(=O)(=O)c3ccc(Cl)cc3Cl)c2)ccc1O`, the values for the Activity in assay [1] and in assay [2] were 4.2% and 83.4%, respectively. For the same compound, the EC50 in assay [3] worked out at 8.8 µM.
`COc1cc(/C=C/C(=O)c2cccc(NS(=O)(=O)c3ccc(C)cc3)c2)ccc1O`: the Activity was determined as 98.7% in assay [1] and 99.6% in assay [2]. Moreover, the figures for the EC50 in assay [4] and in assay [3] were 3.67 µM and 2.7 µM, respectively.
Regarding `COc1cc(/C=C/C(=O)c2cccc(NS(=O)(=O)c3cc(Cl)ccc3Cl)c2)ccc1O`, the figures for the Activity in assay [1] and in assay [2] were 53.4% and 30.4%, respectively.
For `COc1cc(/C=C/C(=O)c2cccc(NS(=O)(=O)c3cccs3)c2)ccc1O` the same measures were 32.4% and 39.1%.
`CCCS(=O)(=O)Nc1cccc(C(=O)/C=C/c2ccc(O)c(OC)c2)c1`: the Activity worked out at 42.3% in assay [1] and 30.8% in assay [2].
For `COc1cc(/C=C/C(=O)c2cccc(NS(=O)(=O)C(C)C)c2)ccc1O` the same measures were 20.5% and 31.2%.
Turning to `COc1cc(/C=C/C(=O)c2cccc(NS(=O)(=O)c3ccc([N+](=O)[O-])cc3)c2)ccc1O`, the Activity in assay [1] was determined as 70.7%; in assay [2], 98.9%. In addition, the EC50 in assay [3] came out at 3.9 µM.
Consider `COc1cc(/C=C/C(=O)c2cccc(NS(=O)(=O)c3ccc(C(C)=O)cc3)c2)ccc1O`, for which the results for the Activity in assay [1] and in assay [2] were 67.9% and 68.7%, respectively.
Regarding `COc1cc(/C=C/C(=O)c2cccc(NS(=O)(=O)c3cccc(C(F)(F)F)c3)c2)ccc1O`, the figures for the Activity in assay [1] and in assay [2] were 52.3% and 36.5%, respectively.
For `COc1cc(/C=C/C(=O)c2cccc(NS(=O)(=O)C(F)(F)F)c2)ccc1O` the same measures were 10.7% and 34.6%.
